Results: ChEMBL document CHEMBL1201862, “PubChem BioAssay data set” (2004)
Active and inactive are the calls of the source.

Legend:
Fatty acid synthase [1] = target: T1, Fatty acid synthase (Homo sapiens, UniProt P49327); test: inhibition of human FAS-TE enzyme activity – biochemical, endpoint fluorescence intensity, uHTS hits, dose response (AID 624327); assay type: functional;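 further: fluorescence from hydrolysis of an O-methyl fluorescein acyl ester substrate by the enzyme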
Fatty acid synthase [2] = target: T1, Fatty acid synthase; test: inhibition of human FAS-TE enzyme activity – biochemical, kinetic fluorescence intensity, dose response (AID 624326); assay type: functional;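 further: rate of fluorescence rise from hydrolysis of a fluorogenic O-methyl fluorescein ester substrate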
[3] = non-specific 3'UTR reporter inhibition in Clone20-Shn3RL – cell-based, Renilla luciferase, cherry-picked, counter-screen for Shn3 inhibitor project, dose response (AID 624133); assay type: functional
[4] = reduction of Shn3 3'UTR-driven luciferase in osteoblasts – cell-based, Clone20 osteoblasts, firefly luciferase, cherry-picked, dose response (AID 624132); assay type: functional;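 further: firefly luciferase luminescence from reporter carrying the Shn3 3'UTR in osteoblasts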
Large T antigen = Large T antigen (Simian virus 40, UniProt P03070); assay type: functional, Betapolyomavirus macacae;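 further: Confirmatory-stage PubChem screen for compounds that inhibit SV40 T antigen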
[5] = intracellular Trypanosoma cruzi inhibitors in host cells – cell-based, plate reader, cherry-pick samples, set 3, dose response (AID 651818); assay type: functional;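 further: compounds incubated with infected cells for about four days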
Protein skinhead-1 = target: T2, Protein skinhead-1 (Caenorhabditis elegans, UniProt P34707); assay type: functional
T2 sequence (P34707 whole entry): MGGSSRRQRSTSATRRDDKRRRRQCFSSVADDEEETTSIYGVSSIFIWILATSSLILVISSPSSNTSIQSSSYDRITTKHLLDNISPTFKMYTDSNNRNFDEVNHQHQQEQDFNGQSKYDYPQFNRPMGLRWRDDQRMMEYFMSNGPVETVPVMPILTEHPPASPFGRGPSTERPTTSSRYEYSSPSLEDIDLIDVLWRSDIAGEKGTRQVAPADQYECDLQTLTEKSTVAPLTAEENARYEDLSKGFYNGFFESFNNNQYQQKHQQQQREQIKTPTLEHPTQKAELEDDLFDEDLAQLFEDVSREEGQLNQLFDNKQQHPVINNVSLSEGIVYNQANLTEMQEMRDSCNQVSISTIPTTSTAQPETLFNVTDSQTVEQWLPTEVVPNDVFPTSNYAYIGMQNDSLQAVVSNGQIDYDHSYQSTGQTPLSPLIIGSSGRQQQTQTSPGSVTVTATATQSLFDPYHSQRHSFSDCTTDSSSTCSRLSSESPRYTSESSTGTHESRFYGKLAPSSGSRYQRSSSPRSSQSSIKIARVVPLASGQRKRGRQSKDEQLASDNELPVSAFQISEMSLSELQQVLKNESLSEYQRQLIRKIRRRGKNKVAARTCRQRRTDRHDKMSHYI

cells = assay type: functional
[6] = target: T3, Zinc finger protein mex-5 (Caenorhabditis elegans, UniProt Q9XUB2); test: potency of MEX-5 RNA-binding blockers – biochemical, C. elegans, fluorescence polarization, dose response (AID 1960)
T3 sequence (Q9XUB2 whole entry): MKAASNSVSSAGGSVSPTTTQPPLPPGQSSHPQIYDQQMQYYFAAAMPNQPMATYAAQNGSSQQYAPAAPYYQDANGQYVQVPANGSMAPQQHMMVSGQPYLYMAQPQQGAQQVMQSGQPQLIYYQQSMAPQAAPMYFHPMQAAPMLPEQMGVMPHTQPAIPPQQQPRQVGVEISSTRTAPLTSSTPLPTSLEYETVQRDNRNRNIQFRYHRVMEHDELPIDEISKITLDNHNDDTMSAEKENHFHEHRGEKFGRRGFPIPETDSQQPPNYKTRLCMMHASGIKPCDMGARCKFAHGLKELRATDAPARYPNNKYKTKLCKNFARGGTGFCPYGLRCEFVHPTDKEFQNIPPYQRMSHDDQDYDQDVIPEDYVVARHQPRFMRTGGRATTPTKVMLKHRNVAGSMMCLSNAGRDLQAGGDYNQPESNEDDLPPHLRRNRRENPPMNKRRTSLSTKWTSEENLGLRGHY

[7] = target: T4, Corticotropin-releasing factor receptor 2/Corticotropin-releasing factor-binding protein (Homo sapiens, UniProt P24387+Q13324); test: activators of CRF receptor 2 with binding protein – uHTS hits, confirmation (AID 602473); assay type: functional; settings: read-out: EC50_Mean
T4 sequence (Q13324 whole entry): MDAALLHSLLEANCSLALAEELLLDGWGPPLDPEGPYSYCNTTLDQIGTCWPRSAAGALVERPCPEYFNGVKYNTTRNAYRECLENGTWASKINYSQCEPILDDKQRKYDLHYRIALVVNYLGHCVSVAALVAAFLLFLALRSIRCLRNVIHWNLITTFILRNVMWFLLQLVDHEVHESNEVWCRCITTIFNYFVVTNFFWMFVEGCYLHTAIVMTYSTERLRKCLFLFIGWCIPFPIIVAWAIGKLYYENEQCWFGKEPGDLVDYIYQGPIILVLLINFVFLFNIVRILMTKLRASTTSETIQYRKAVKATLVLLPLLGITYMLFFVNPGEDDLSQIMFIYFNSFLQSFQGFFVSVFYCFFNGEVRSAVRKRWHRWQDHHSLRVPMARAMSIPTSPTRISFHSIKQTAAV
T4 sequence (P24387 whole entry): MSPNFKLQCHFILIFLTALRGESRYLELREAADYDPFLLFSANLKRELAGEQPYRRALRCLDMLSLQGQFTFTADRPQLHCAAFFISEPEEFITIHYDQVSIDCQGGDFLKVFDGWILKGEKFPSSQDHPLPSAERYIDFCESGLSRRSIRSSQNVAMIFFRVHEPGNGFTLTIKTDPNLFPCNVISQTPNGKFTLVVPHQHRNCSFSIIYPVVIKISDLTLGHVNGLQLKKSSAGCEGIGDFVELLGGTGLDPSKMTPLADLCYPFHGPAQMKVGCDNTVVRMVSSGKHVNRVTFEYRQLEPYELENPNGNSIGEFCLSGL

[8] = target: T5, Ubiquitin-conjugating enzyme E2 N (Homo sapiens, UniProt P61088); assay type: functional;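 further: Dose-response confirmation in a TR-FRET assay detecting UBC13-driven polyubiquitin chain formation, inhibition measured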
T5 sequence (P61088 whole entry): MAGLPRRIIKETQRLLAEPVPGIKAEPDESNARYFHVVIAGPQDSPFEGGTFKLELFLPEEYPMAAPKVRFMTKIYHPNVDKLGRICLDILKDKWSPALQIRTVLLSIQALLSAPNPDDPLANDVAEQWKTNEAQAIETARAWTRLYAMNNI

[9] = target: T6, Carboxy-terminal domain RNA polymerase II polypeptide A small phosphatase 1 (Homo sapiens, UniProt Q9GZU7); test: CTDSP1 inhibitors, concentration-response, biochemical, absorbance readout, ultra-high-throughput screen actives (AID 540297); assay type: functional
T6 sequence (Q9GZU7 whole entry): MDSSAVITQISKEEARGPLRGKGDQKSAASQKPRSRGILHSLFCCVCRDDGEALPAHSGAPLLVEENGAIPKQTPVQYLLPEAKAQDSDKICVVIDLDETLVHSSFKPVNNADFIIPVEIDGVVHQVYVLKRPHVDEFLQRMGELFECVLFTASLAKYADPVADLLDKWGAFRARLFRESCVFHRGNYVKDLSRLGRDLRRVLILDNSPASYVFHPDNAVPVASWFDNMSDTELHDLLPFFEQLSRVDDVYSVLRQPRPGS

[10] = P. falciparum Dd2 growth inhibitors, dose response, SYBR Green, cherry-picked samples (AID 1159567); assay type: functional, cell-based

T1 sequence (P49327 whole entry): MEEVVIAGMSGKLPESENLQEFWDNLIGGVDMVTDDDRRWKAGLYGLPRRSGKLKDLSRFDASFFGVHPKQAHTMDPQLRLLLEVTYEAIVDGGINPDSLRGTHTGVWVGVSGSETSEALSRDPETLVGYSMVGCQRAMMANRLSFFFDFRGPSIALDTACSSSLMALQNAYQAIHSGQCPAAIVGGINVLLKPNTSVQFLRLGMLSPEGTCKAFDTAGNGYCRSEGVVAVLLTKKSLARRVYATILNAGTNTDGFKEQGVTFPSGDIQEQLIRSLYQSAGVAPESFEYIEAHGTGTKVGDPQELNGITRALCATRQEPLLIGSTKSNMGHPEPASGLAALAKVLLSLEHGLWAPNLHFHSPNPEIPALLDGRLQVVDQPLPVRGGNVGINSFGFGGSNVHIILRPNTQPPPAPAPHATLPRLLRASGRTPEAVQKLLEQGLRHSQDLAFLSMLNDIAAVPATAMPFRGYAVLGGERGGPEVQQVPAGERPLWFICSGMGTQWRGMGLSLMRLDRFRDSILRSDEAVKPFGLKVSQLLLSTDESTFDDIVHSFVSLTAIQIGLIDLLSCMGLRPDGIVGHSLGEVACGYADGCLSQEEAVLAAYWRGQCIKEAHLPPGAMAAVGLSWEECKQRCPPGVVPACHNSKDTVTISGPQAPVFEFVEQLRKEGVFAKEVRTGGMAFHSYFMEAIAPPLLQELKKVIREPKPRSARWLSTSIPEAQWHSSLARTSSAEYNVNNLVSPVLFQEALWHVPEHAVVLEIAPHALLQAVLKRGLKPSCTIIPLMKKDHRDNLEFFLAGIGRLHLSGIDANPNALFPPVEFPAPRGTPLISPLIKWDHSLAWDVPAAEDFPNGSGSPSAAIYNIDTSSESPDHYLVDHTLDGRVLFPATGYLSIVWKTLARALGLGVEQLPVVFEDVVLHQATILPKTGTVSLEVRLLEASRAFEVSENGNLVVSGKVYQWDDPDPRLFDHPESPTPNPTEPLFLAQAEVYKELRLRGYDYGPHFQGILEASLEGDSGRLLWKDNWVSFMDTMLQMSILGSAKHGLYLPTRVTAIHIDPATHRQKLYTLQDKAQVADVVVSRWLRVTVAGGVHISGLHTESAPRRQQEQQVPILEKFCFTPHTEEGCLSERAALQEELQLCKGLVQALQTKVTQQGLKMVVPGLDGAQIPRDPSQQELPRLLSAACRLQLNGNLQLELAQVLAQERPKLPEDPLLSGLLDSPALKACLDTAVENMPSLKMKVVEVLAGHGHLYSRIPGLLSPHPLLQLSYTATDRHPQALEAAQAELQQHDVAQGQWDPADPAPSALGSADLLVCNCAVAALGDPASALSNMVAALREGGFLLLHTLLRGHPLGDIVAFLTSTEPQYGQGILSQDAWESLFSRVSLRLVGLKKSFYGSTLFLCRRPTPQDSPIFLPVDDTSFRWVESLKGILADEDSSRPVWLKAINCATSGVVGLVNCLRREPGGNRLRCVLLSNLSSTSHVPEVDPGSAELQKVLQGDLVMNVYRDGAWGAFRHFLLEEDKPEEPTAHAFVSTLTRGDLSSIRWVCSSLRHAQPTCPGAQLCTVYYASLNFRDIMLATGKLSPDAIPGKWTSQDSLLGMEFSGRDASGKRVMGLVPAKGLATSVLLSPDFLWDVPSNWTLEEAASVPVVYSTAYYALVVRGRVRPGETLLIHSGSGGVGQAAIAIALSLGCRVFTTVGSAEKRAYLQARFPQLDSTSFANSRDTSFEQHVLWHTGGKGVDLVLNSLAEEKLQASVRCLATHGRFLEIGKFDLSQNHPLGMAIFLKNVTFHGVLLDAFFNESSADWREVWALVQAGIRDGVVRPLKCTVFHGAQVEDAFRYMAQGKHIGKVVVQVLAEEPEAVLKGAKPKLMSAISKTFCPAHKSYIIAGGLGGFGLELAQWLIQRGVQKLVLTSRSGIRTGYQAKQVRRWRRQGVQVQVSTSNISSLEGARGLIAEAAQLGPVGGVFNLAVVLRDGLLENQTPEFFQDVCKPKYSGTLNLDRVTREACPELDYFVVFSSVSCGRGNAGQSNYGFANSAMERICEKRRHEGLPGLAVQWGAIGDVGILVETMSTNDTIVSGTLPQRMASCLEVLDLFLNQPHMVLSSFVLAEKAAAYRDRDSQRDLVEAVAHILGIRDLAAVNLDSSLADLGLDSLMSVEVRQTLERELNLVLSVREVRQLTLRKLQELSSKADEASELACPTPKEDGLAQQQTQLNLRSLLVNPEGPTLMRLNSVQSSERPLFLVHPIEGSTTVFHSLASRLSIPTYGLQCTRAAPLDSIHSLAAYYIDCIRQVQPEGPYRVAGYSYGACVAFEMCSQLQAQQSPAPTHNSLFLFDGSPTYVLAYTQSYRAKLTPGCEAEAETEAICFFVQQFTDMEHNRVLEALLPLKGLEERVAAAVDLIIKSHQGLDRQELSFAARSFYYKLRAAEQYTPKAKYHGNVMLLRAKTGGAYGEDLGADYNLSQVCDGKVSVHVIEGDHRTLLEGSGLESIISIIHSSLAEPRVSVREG
Chain of Large T antigen (P03070 whole entry): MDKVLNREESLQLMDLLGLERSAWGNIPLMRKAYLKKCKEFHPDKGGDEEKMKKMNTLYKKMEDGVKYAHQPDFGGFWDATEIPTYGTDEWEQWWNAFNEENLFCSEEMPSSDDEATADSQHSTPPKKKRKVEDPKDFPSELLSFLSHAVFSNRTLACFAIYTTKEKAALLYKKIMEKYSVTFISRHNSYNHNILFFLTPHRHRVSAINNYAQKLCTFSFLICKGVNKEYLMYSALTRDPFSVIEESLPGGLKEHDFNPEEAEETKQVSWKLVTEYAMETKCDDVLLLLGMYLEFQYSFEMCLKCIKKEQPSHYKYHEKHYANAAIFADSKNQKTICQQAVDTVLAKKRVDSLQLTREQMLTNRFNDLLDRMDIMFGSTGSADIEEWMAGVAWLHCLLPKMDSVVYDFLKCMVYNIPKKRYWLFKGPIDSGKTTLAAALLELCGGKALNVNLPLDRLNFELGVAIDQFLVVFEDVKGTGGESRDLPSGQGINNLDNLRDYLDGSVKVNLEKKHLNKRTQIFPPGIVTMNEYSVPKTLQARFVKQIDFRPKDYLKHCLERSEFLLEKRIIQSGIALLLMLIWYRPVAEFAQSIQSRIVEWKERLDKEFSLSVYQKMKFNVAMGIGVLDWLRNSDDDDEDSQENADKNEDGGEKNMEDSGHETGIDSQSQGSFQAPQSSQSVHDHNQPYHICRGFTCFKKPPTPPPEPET

In the case of COc1ccc(/C=C(\NC(=O)c2ccc([N+](=O)[O-])cc2)C(=O)N2CCOCC2)cc1, the IC50 (Fatty acid synthase [1]) is reported as 1.34 µM (active) and the IC50 (Fatty acid synthase [2]) is reported as 0.848 µM (active).

In the case of Cc1cccc(N2CCN(C(=O)COc3ccc4ccc(=O)oc4c3)CC2)c1C, the IC50 (Fatty acid synthase [1]) is reported as 3.84 µM (active) and the IC50 (Fatty acid synthase [2]) is reported as 5.23 µM (active).

For COc1ccc(OC)c(C(c2nnnn2Cc2ccccc2)N2CCN(C3CCCCC3)CC2)c1 (configuration not stated), the AC50 [3] was 30.4 µM (active) and the AC50 [4] was > 70 µM (inactive).

In the case of Cc1ccccc1NC(=O)c1cc(N)ccc1N1CCCCC1, the IC50 (Large T antigen) is reported as 18.9 µM (active).

In the case of Cc1cc(C(=O)Nc2cccc3c2O[C@@H](CN(C)Cc2ccc(-c4ccccc4)cc2)[C@@H](C)CN([C@H](C)CO)C3=O)n(C)n1, the AC50 [5] is reported as 5.16 µM (active).

For CCOCC(=O)Nc1ccc(C)c(Cl)c1, the IC50 (Protein skinhead-1) was > 100 µM (inactive) and the IC50 (cells) was 37.1 µM (active).

For CCNC(=O)C1(C)CCCN1C(=O)c1ccc(C#N)cc1 (configuration not stated), the IC50 (Protein skinhead-1) was > 100 µM (inactive).

For Cc1cc(OCc2cccc(Cl)c2)c(C)cc1CN1CCOCC1, the IC50 (Protein skinhead-1) was 6.33 µM (active).

For N#CC1=C2SCN(c3ccccc3)CN2C(=O)CC1c1ccccc1Cl (configuration not stated), the IC50 (Large T antigen) was 36.3 µM (active).

With O=C1NC(=O)N(c2ccc(F)cc2)C(=O)/C1=C/c1c[nH]c2ccccc12 the EC50 [6] was > 300 µM (inconclusive) and the EC50 [7] was 10.3 µM (active).

For COc1ccccc1C(=O)Nc1c2c(nn1-c1cccc(C)c1C)CS(=O)(=O)C2, the IC50 [8] was > 20 µM (inactive) and the IC50 [9] was 10.1 µM (active).

In the case of Fc1ccc(-c2nc3ccc(Br)cn3c2Cc2ccccc2C(F)(F)F)cc1, the IC50 (Protein skinhead-1) is reported as > 100 µM (inactive).

With C[C@H]1CN([C@@H](C)CO)C(=O)c2cc(NS(=O)(=O)c3ccc(Cl)cc3)ccc2O[C@H]1CN(C)Cc1ccc(C(=O)Nc2ccccc2N)cc1 the AC50 [5] was 1.96 µM (active).

In the case of C=CCn1c(SCC(=O)N(CC)C2CCS(=O)(=O)C2)nnc1-c1ccccc1 (configuration not stated), the IC50 [8] is reported as > 20 µM (inactive).

In the case of C[C@H]1CN([C@@H](C)CO)C(=O)c2cc(NC(=O)Nc3cccc4ccccc34)ccc2O[C@@H]1CN(C)Cc1ccc(Oc2ccccc2)cc1, the AC50 [10] is reported as 7.39 µM (active) and the AC50 [5] is reported as 4.66 µM (active).
